Measurements taken from ChEMBL document CHEMBL4414618, “Structure-Activity Relationships of Fish Oil Derivatives with Antiallergic Activity in Vitro and in Vivo” (J Med Chem, 2019).

Columns and labels:
RBL-2H3 [1] = test: (§1) Antiallergic activity in rat RBL2H3 cells assessed as inhibition of DNP-HSA-mediated degranulation by measuring decrease in beta-hexosaminidase activity preincubated for 30 mins followed by DNP-HSA stimulation and measured after 30 mins by 4-nitrophenyl 2-acetamido-2-deoxy-beta-D-glucopyranoside substrate based assay; assay type: functional, cell-based
[2] = biological target: T1, Fatty-acid amide hydrolase 1 (Homo sapiens, UniProt O00519); test: Inhibition of human FAAH expressed in baculovirus infected Sf9 cells using N-(6-methoxypyridin-3-yl)octanamide as substrate measured for 15 mins by fluorescence based assay
T1 sequence (O00519 whole entry): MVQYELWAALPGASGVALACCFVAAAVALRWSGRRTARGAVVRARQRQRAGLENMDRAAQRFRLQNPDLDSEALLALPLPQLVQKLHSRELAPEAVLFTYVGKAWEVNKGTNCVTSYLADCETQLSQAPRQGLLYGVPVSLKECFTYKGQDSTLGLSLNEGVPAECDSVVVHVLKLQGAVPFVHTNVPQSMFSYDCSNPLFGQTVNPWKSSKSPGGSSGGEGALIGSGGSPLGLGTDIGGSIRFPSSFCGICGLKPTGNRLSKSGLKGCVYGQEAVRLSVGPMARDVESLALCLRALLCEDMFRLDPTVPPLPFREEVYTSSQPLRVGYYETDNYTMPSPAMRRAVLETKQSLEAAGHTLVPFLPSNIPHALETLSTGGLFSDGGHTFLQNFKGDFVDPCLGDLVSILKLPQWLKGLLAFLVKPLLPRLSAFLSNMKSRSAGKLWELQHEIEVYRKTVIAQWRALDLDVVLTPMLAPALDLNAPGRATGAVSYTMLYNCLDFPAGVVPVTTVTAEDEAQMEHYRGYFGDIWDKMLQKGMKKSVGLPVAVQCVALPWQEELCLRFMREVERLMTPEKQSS

Mus musculus [3] = test: (§2) Antiallergic activity in BALB/c mouse assessed as reduction in anti-DNP-IgE-mediated passive cutaneous anaphylaxis at 1000 mg/kg, po administered once daily for 5 days followed by anti-DNP-IgE stimulation on day 4 and subsequent DNP-HSA challenge on day 5 post 1 hr compound dose and measured after 30 mins by Evans blue dye-based spectrophotometric method relative to control; assay type: functional; parameters: scale not given: the % may be the effect or the level left
[4] = biological target: T1, Fatty-acid amide hydrolase 1; test: Substrate activity at human FAAH expressed in baculovirus infected Sf9 cells assessed as docosahexaenoic acid formation incubated for 60 mins by HPLC analysis; assay type: ADME; conditions: sf9, 1 h
RBL-2H3 [5] = test: as §1, with “incubated for 30 mins prior to FAAH inhibitor URB597 addition further incubated” for “preincubated”; assay type: functional, cell-based
RBL-2H3 [6] = test: as §1, with “incubated for 30 mins prior to CB2 antagonist AM630 addition further incubated” for “preincubated”; assay type: functional, cell-based
RBL-2H3 [7] = test: Ratio of IC50 for antiallergic activity in rat RBL2H3 cells assessed as inhibition of DNP-HSA-mediated degranulation by measuring decrease in beta-hexosaminidase activity to IC50 for antiallergic activity in rat RBL2H3 cells assessed as inhibition of DNP-HSA-mediated degranulation by measuring decrease in beta-hexosaminidase activity in presence of FAAH inhibitor URB597; assay type: functional
Mus musculus [8] = test: as §2, with “50” for “1000”; assay type: functional; parameters: scale not given: the % may be the effect or the level left

| IC50 (RBL-2H3 [1]) [µM] | Compound | further results |
| --- | --- | --- |
| 24 | CC/C=C\C/C=C\C/C=C\C/C=C\C/C=C\C/C=C\CCC(=O)NCC(=O)O | IC50 [2]: 8.6 µM; Activity (Mus musculus [3]): 0%; Drug metabolism [4]: Metabolite_Detected |
| 25 | CC/C=C\C/C=C\C/C=C\C/C=C\C/C=C\C/C=C\CCC(=O)NCCO | IC50 (RBL-2H3 [5]): 7.6 µM; IC50 (RBL-2H3 [6]): 25 µM; IC50 [2]: > 50 µM; Activity (Mus musculus [3]): 31%; Drug metabolism [4]: Metabolite_Detected; Ratio IC50 (RBL-2H3 [7]): 3 |
| > 50 | CCCCCCCC/C=C\CCCCCCCCCCCC(=O)NCCO |  |
| 16 | CC/C=C\C/C=C\C/C=C\C/C=C\C/C=C\C/C=C\CCC(=O)NC(CO)CO | IC50 [2]: > 50 µM; Activity (Mus musculus [3]): 17%; Drug metabolism [4]: Metabolite_Notdetected |
| > 50 | CC/C=C\C/C=C\C/C=C\C/C=C\C/C=C\C/C=C\CCC(=O)NCCc1ccc(O)c(O)c1 |  |
| > 50 | CCCCC/C=C\C/C=C\CCCCCCCCCCCC(=O)O |  |
| > 50 | CC/C=C\C/C=C\C/C=C\C/C=C\C/C=C\C/C=C\CCC(=O)OCCO |  |
| 15 | CC/C=C\C/C=C\C/C=C\C/C=C\C/C=C\C/C=C\CCC(=O)NS(=O)(=O)c1ccc([N+](=O)[O-])cc1 | Activity (Mus musculus [3]): 49% |
| > 50 | CC/C=C\C/C=C\C/C=C\C/C=C\C/C=C\C/C=C\CCC(=O)N1CCN(C)CC1 |  |
| 18 | CC/C=C\C/C=C\C/C=C\C/C=C\C/C=C\C/C=C\CCC(=O)NCCCO | IC50 [2]: > 50 µM; Activity (Mus musculus [3]): 0%; Drug metabolism [4]: Metabolite_Detected |
| > 50 | CC/C=C\C/C=C\C/C=C\C/C=C\C/C=C\C/C=C\CCC(=O)Nc1cccc(O)c1 |  |
| 27 | CC/C=C\C/C=C\C/C=C\C/C=C\C/C=C\C/C=C\CCC(=O)NCC(C)O (configuration not stated) |  |
| > 50 | CCCCC/C=C\C/C=C\CCCCCCCCCCCC(=O)NCCO |  |
| 15 | CC/C=C\C/C=C\C/C=C\C/C=C\C/C=C\C/C=C\CCC(=O)NS(=O)(=O)c1ccc(C(F)(F)F)cc1 | Activity (Mus musculus [3]): 19% |
| > 50 | CC/C=C\C/C=C\C/C=C\C/C=C\C/C=C\C/C=C\CCC(=O)NC(C)(C)C |  |
| > 50 | CC/C=C\C/C=C\C/C=C\C/C=C\C/C=C\C/C=C\CCC(=O)NS(=O)(=O)c1ccc(O)cc1 |  |
| 24 | CC/C=C\C/C=C\C/C=C\C/C=C\C/C=C\C/C=C\CCC(=O)NC(C)CO (configuration not stated) | IC50 [2]: > 50 µM; Activity (Mus musculus [3]): 7%; Drug metabolism [4]: Metabolite_Notdetected |
| > 50 | CC/C=C\C/C=C\C/C=C\C/C=C\C/C=C\C/C=C\CCC(=O)N(C)CCO |  |
| > 50 | CC/C=C\C/C=C\C/C=C\C/C=C\C/C=C\C/C=C\CCC(=O)NCCN |  |

| IC50 (RBL-2H3 [1]) [µM] | Compound | further results |
| --- | --- | --- |
| 27 | CC/C=C\C/C=C\C/C=C\C/C=C\C/C=C\C/C=C\CCC(=O)NS(=O)(=O)c1ccc(C)cc1 |  |
| > 50 | CC/C=C\C/C=C\C/C=C\C/C=C\C/C=C\C/C=C\CCC(=O)N1CCN(S(C)(=O)=O)CC1 |  |
| > 50 | CC/C=C\C/C=C\C/C=C\C/C=C\C/C=C\C/C=C\CCC(=O)NS(C)(=O)=O |  |
| 18 | CC/C=C\C/C=C\C/C=C\C/C=C\C/C=C\C/C=C\CCC(=O)NCCOCCO | IC50 [2]: > 50 µM; Activity (Mus musculus [3]): 11%; Drug metabolism [4]: Metabolite_Detected |
| > 50 | CC/C=C\C/C=C\C/C=C\C/C=C\C/C=C\C/C=C\CCC(=O)OCCOCCO |  |
| > 50 | CC/C=C\C/C=C\C/C=C\C/C=C\C/C=C\C/C=C\CCC(=O)NS(=O)(=O)C1CC1 |  |
| > 50 | CC/C=C\C/C=C\C/C=C\C/C=C\C/C=C\C/C=C\CCC(=O)NS(=O)(=O)c1cccs1 |  |
| > 50 | CC/C=C\C/C=C\C/C=C\C/C=C\C/C=C\C/C=C\CCC(=O)N(C)CCOC |  |
| 17 | CC/C=C\C/C=C\C/C=C\C/C=C\C/C=C\C/C=C\CCC(=O)NS(=O)(=O)C(C)(C)C | IC50 [2]: > 50 µM; Activity (Mus musculus [3]): 0%; Drug metabolism [4]: Metabolite_Notdetected |
| 24 | CC/C=C\C/C=C\C/C=C\C/C=C\C/C=C\C/C=C\CCC(=O)NS(=O)(=O)c1ccc(Cl)cc1 |  |
| > 50 | CC/C=C\C/C=C\C/C=C\C/C=C\C/C=C\C/C=C\CCC(=O)NCCC |  |
| > 50 | CC/C=C\C/C=C\C/C=C\C/C=C\C/C=C\C/C=C\CCC(=O)NC(C)C |  |
| 21 | CC/C=C\C/C=C\C/C=C\C/C=C\C/C=C\C/C=C\CCC(=O)NS(=O)(=O)C(F)(F)C(F)(F)F |  |
| > 50 | CC/C=C\C/C=C\C/C=C\C/C=C\C/C=C\C/C=C\CCC(=O)NS(=O)(=O)c1ccccc1 |  |
| > 50 | CC/C=C\C/C=C\C/C=C\C/C=C\C/C=C\C/C=C\CCC(=O)N1CCOCC1 |  |
| > 50 | CC/C=C\C/C=C\C/C=C\C/C=C\C/C=C\C/C=C\CCC(=O)NC1CCOCC1 |  |
| 22 | CC/C=C\C/C=C\C/C=C\C/C=C\C/C=C\C/C=C\CCC(=O)NS(=O)(=O)Cc1ccccc1 | Activity (Mus musculus [3]): 2% |
| 19 | CC/C=C\C/C=C\C/C=C\C/C=C\C/C=C\C/C=C\CCC(=O)NS(=O)(=O)c1ccc(OC(F)(F)F)cc1 | Activity (Mus musculus [3]): 11% |
| 47 | CC/C=C\C/C=C\C/C=C\C/C=C\C/C=C\C/C=C\CCC(=O)NS(=O)(=O)C(F)(F)F |  |

| IC50 (RBL-2H3 [1]) [µM] | Compound | further results |
| --- | --- | --- |
| > 50 | CC/C=C\C/C=C\C/C=C\C/C=C\C/C=C\C/C=C\CCC(=O)NCC1CCOCC1 |  |
| > 50 | CC/C=C\C/C=C\C/C=C\C/C=C\C/C=C\C/C=C\CCC(=O)NS(=O)(=O)c1ccc(C(=O)O)cc1 |  |
| 29 | CC/C=C\C/C=C\C/C=C\CCCCCCCC(=O)NCCO | Activity (Mus musculus [3]): 29% |
| > 50 | CC/C=C\C/C=C\C/C=C\C/C=C\C/C=C\C/C=C\CCC(=O)Nc1ccccc1O |  |
| > 50 | CC/C=C\C/C=C\C/C=C\C/C=C\C/C=C\C/C=C\CCC(=O)NCCOC |  |
| > 50 | CC/C=C\C/C=C\C/C=C\C/C=C\C/C=C\C/C=C\CCC(=O)NCC(=O)OC |  |
| 30 | CC/C=C\C/C=C\C/C=C\C/C=C\C/C=C\C/C=C\CCC(=O)NS(=O)(=O)c1ccc(C(=O)OC)cc1 |  |
| > 50 | CC/C=C\C/C=C\C/C=C\C/C=C\C/C=C\C/C=C\CCC(=O)N(CCO)CCO |  |
| > 50 | CC/C=C\C/C=C\C/C=C\C/C=C\C/C=C\C/C=C\CCC(=O)OC(CO)CO |  |
| 24 | CC/C=C\C/C=C\C/C=C\C/C=C\C/C=C\C/C=C\CCC(=O)NS(=O)(=O)c1ccc(F)cc1 | Activity (Mus musculus [3]): 0% |
| > 50 | CCCCC/C=C\C/C=C\C/C=C\CCCCCCC(=O)O [DIHOMO-GAMMA-LINOLENIC ACID] |  |
| > 50 | CC/C=C\C/C=C\C/C=C\C/C=C\C/C=C\C/C=C\CCC(=O)O [DOCONEXENT] | Activity (Mus musculus [3]): 6% |
| > 50 | CCCCCCCC/C=C\CCCCCCCCCCCC(=O)O [ERUCIC ACID] |  |
|  | CC(C)(C(=O)O)c1ccc(C(O)CCCN2CCC(C(O)(c3ccccc3)c3ccccc3)CC2)cc1 (configuration not stated) [FEXOFENADINE] | Activity (Mus musculus [8]): 39% |
| > 50 | CC/C=C\C/C=C\C/C=C\C/C=C\C/C=C\CCCC(=O)O [ICOSAPENT] |  |
| > 50 | CCCCC/C=C\C/C=C\CCCCCCCC(=O)O [LINOLEIC ACID] |  |
| > 50 | CC/C=C\C/C=C\C/C=C\CCCCCCCC(=O)O [LINOLENIC ACID] |  |
| > 50 | CCCCCCCC/C=C\CCCCCCCC(=O)O [OLEIC ACID] |  |
| > 50 | CCCCCCCC/C=C\CCCCCCCC(=O)NCCO [OLEOYLETHANOLAMIDE] |  |

| Compound | IC50 (RBL-2H3 [1]) [µM] | further results |
| --- | --- | --- |
| CCCCC/C=C\C/C=C\C/C=C\CCCCCCC(=O)NCCO | > 50 |  |
| CC/C=C\C/C=C\C/C=C\C/C=C\C/C=C\C/C=C\CCC(=O)NCC(O)CO (configuration not stated) | 17 | IC50 [2]: > 50 µM; Activity (Mus musculus [3]): 23%; Drug metabolism [4]: Metabolite_Detected |
| CC/C=C\C/C=C\C/C=C\C/C=C\C/C=C\CCCC(=O)NCCO | 24 |  |
| CCCCC/C=C\C/C=C\C/C=C\C/C=C\CCCC(=O)NCCO [ANANDAMIDE] | > 50 |  |
| CCCCC/C=C\C/C=C\C/C=C\C/C=C\CCCC(=O)O [ARACHIDONIC ACID] | > 50 |  |
| CCCCC/C=C\C/C=C\CCCCCCCC(=O)NCCO [LINOLEOYLETHANOLAMIDE] | 48 |  |
